Measured values as given in ChEMBL document CHEMBL6074700, “Furan- and Furopyrimidine-Based Derivatives: Synthesis, VEGFR-2 Inhibition, and In Vitro Cytotoxicity” (ACS Med Chem Lett, 2024).
The source made the active and inactive calls. The rule behind the calls is not given here.

Legend:
[1] = molecular target: Vascular endothelial growth factor receptor 2 (Homo sapiens, UniProt P35968); test: Inhibition of VEGFR2 (unknown origin)
HepG2 = test: Antiproliferative activity against human HepG2 cells incubated for 72 hrs; conditions: HepG2, 72 h
MCF7 = test: Antiproliferative activity against human MCF7 cells incubated for 72 hrs; conditions: MCF7, 72 h
A549 = test: Antiproliferative activity against human A549 cells incubated for 72 hrs; conditions: A549, 72 h
PC-3 = test: Antiproliferative activity against human PC-3 cells incubated for 72 hrs; conditions: PC-3, 72 h
HT-29 [2] = test: Antiproliferative activity against human HT-29 cells incubated for 72 hrs; conditions: HT-29, 72 h
WI-38 = test: Antiproliferative activity against human WI-38 cells incubated for 72 hrs; conditions: WI-38, 72 h
HUVEC = test: Cytotoxicity against HUVEC cells; conditions: Homo sapiens
HT-29 [3] = test: Induction of apoptosis in human HT-29 cells assessed as increase in total apoptotic cells measured after 24 hrs by flow cytometry; type: functional, cell-based
HT-29 [4] = test: Induction of cell cycle arrest in human HT-29 cells assessed as accumulation of cells at G2/M phase at IC50 measured after 24 hrs by flow cytometry; type: functional, cell-based

Sequence of Vascular endothelial growth factor receptor 2 (P35968 whole entry): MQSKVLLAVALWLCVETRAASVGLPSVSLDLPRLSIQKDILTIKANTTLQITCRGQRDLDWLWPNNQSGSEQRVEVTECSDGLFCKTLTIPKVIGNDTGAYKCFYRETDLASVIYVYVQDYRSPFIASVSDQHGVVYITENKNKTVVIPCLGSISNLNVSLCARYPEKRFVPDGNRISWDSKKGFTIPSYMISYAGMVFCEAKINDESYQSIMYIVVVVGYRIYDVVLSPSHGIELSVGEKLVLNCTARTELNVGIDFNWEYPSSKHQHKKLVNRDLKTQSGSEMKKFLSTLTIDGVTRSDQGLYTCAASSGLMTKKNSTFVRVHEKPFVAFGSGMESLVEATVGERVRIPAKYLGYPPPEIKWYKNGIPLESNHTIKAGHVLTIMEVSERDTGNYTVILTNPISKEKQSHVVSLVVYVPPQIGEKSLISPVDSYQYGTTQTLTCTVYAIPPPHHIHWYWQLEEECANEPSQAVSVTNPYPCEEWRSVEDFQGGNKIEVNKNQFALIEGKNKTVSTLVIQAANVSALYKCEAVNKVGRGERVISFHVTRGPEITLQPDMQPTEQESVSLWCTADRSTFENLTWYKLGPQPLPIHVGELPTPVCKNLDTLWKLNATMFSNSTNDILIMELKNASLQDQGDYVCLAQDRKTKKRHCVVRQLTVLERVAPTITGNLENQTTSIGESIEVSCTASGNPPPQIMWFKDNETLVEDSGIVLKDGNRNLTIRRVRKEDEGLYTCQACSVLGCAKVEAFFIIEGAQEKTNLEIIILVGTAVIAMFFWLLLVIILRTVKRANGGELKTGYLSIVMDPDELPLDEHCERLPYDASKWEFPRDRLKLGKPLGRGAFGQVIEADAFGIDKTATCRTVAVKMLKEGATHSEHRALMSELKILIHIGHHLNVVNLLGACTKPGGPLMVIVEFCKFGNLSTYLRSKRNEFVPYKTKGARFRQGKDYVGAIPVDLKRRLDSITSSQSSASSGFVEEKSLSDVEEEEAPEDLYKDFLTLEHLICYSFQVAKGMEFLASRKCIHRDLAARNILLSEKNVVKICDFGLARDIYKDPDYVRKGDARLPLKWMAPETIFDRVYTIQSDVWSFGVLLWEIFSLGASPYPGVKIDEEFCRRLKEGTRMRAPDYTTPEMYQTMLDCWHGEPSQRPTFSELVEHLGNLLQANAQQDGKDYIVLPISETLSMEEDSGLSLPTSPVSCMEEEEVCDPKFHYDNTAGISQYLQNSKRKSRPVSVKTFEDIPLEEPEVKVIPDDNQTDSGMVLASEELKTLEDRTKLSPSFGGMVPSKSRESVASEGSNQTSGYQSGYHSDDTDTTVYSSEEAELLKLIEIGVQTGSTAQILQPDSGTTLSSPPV

Row | IC50 (HepG2) [µM] | IC50 (MCF7) [µM] | IC50 (A549) [µM] | IC50 (PC-3) [µM] | IC50 (HT-29 [2]) [µM] | SMILES | IC50 (WI-38) [µM] | other results
1 | – | – | – | – | – | Cc1cccc(-c2nc3c4c(-c5ccccc5)c(-c5ccccc5)oc4ncn3n2)c1 | – | IC50 [1]: 0.121 µM
2 | 11.2 | 9.06 | 10.1 | 23.2 | 12.1 | N#Cc1c(N=CNc2ccc(Br)cc2)oc(-c2ccccc2)c1-c1ccccc1 | 27.4 | –
3 | 13.1 | 11.4 | 14.5 | 22.1 | 21.4 | O=C(Nc1ncnc2oc(-c3ccccc3)c(-c3ccccc3)c12)c1ccc([N+](=O)[O-])cc1 | 26.5 | –
4 | – | – | – | – | – | Cc1ccc(-c2nc3c4c(-c5ccccc5)c(-c5ccccc5)oc4ncn3n2)cc1 | – | IC50 [1]: 0.125 µM
5 | – | – | – | – | – | COc1ccc(-c2nc3c4cc(-c5ccc(OC)cc5)oc4ncn3n2)cc1 | – | IC50 (HUVEC): 22.6 µM
6 | 7.28 | 6.72 | 6.66 | 14.5 | 8.51 | N#Cc1c(N=CNc2ccc(Cl)cc2)oc(-c2ccccc2)c1-c1ccccc1 | 30 | Activity (HT-29 [3]): Active; Activity (HT-29 [4]): Active
7 | – | – | – | – | – | N=c1c2cc(-c3ccccc3)oc2ncn1/N=C/c1ccc(Br)cc1 | – | IC50 (HUVEC): 61.2 µM
